Results published in paper PMC10728220, “Novel 3-(pyrazol-4-yl)-2-(1H-indole-3-carbonyl)acrylonitrile derivatives induce intrinsic and extrinsic apoptotic death mediated P53 in HCT116 colon carcinoma” (Scientific Reports, 2023).
Entries after “also recorded” stand apart in the source; their conditions may differ.

What was measured:
Human caspase-9 = assay: ELISA caspase 9 production in HCT116; assay type: cell-based; conditions: HCT116 treated with 7f
Method: The compound 7f induced caspase 9 production in a dose–response approach. This was achieved by using the following concentrations of chalcone 7f (1.6, 3.1, 6.3, 12.5, 25, 50, 100 ng/ml). There was a continuing rise in the caspase 9 production level by increasing the concentrations regularly. Compound 7f was able to stimulate the production of caspase 9 by inducing a 21.43 ng/ml of caspase 9.
(§1) The quantitative measurements of Human caspases-3, -8, and -9 concentrations in HCT116 cell culture lysates were performed using ELISA assay. The protocols were followed up based on the manuscript instructions described in the following kits; Invitrogen human Caspase-3 Elisa Kit, Catalog # KHO1091, DRG® human Caspase-8 ELISA Kit, Catalog # (EIA-4863), and DRG® human Caspase-9 ELISA Kit, Catalog # (EIA-4860)respectively. In short, the procedure described in the above protocols was as instructed; all reagents, standards, and samples were prepared. Then, 100 μL of standard or samples were added to each well and incubated at room temperature for 2 h. […] All readings were measured immediately at a wavelength of 450 nm. From the readings of the standards, a standard curve was plotted using curve fitting software. Then, the concentrations for unknown samples and controls were measured from the standard curve.

HCT116 cells = assay: DNA fragmentation, agarose gel electrophoresis; assay type: cell-based, human; conditions: HCT116, 6.76 µg/mL, 48 h, 2% agarose gel
Method: Both control and treated cells were incubated for 48h. Then cells of both two samples were harvested for DNA fragmentation measurements using a SIGMA DNA fragmentation imaging kit with catalogue number 06432344001. To verify the validity of the DNA of both control and cells treated with 6.76 µg/mL of chalcone 7f, we carried out the loading of all samples on 2% agarose gel containing 1 µg/mL ethidium bromide and visualized by ultraviolet transillumination.
The DNA gel electrophoresis laddering assay in the HCT116 cell line was performed according to the instructions of Yawata[87] with some modifications. Briefly, after 48 h of exposure of the HCT116 cancer cell line to compound 7f in Petri dishes (60 × 15 mm, Greiner), the cells were suspended in 1 ml of medium and then centrifuged at 900 rpm for 10 min. […] About 1 × 10^6 cells of HCT116 were treated with the IC50 value of compound 7f. Then, the treated cells were collected via trypsinization and washed with Dulbecco’s Phosphate Buffered Saline. Afterwards, the cells were treated with the lysis buffer (5 mM ethylenediaminetetraacetic acid (EDTA), 0.5% Triton X-100, 10 mM Tris (pH 7.4), and 150 mM NaCl) for 35 min on ice. […] At last, the fragmented DNA percentage was detected by performing gel electrophoresis using 2% agarose gel containing 0.1 μg/ml ethidium bromide (Supplementary File 1).

CDK4 = assay: RT-PCR gene expression, CDK4, in HCT116; assay type: cell-based, human; conditions: HCT116, 6.76 µg/mL, 48 h, relative to untreated control
Method: In this current research, relative gene expression related to apoptosis should be studied well because they were very interesting to understand the effect of our selected compound on this important biological process. HCT116 cells were treated with chalcone 7f (6.76µg/mL) for 48 h, and then subjected to qPCR analysis regarding control samples. The effect of chalcone 7f on the expression level of (Bax, p53, Bcl2, and CDK4) genes was assessed using the qPCR technique. […] As indicated in this schematic diagram, the expression of apoptotic genes (Bax and P53) was enhanced by the effect of chalcone 7f to reach (3.662, and 5.435) respectively, relative to the control.
Total RNA was extracted from the compound 7f-treated HCT116 cells and the untreated cells using the RNA Purification Kit GeneJET (Thermo scientific, ON, Canada) 0.1 µg of the extracted RNA was reverse transcribed into complementary DNA (cDNA) using High-Capacity cDNA Reverse Transcription Kit (Thermo Scientific, ON, Canada). qPCR was done using Brilliant SYBR Green qPCR master mix (Applied Biosystems, San Francisco, CA, USA) in One Step Plus Real-Time PCR System (Applied Biosystems, San Francisco, CA, USA). […] The relative gene expression was determined using the 2^−ΔΔCt equation after normalization to the expression of β-actin (housekeeping gene) (Qiagen, CA, USA)(10 pmol/µL)[85], [86]. […]

Human caspase-8 = assay: ELISA caspase 8 production in HCT116; assay type: cell-based
Method: The production of caspase 8 was determined using various concentrations of 7f in a concertation-dependent manner. There was a gradual increase in the caspase 8 production level using the following concentrations (0.156, 0.312, 0.625, 1.25, 2.5, 5, and 10 ng/ml). The maximal increase in caspase 8 production was achieved by using 7f concentrations between 5 and 10 ng/ml (Fig. 8).
as §1, with “h. Afterward, 100 μL of the prepared antibody (anti-rabbit-IgG-HRP) was added to all wells for 1 h at room temperature.” for “h.”

In the case of `N#C/C(=C\c1cn(-c2ccccc2)nc1-c1ccc([N+](=O)[O-])cc1)C(=O)c1c[nH]c2ccccc12` [Compound 7f, (E)-2-(1H-Indole-3-carbonyl)-3-(3-(4-nitrophenyl)-1-phenyl-1H-pyrazol-4-yl)acrylonitrile], the “caspase 9 production” value (Human caspase-9) is reported as 21.43 ng/mL, the “caspase 9 production, fold increase compared to control cells” value (Human caspase-9) is reported as roughly 4.641 fold and the “effect on genomic DNA (DNA fragmentation)” value (HCT116 cells) is reported as “completely deteriorated the genomic DNA; also recorded: completely degraded the genomic DNA”. The “RT-PCR fold change CDK4” value (CDK4) was 0.454 fold, the “caspase 8 production, fold increase” value (Human caspase-8; HCT116 treated with 7f versus untreated) was 3.788 fold and the “caspase 8 production level” value (Human caspase-8; HCT116 treated with 7f, untreated 0.2914 ng/ml) was 1.104 ng/mL.
